From patent US20090143279A1 (priority 2007, published 2009) come the findings set out here.

Experiment [1] has as its system reactive oxygen species. It counts as cell-based, mouse. The following applies: for ROS (composite Z-score): normalized score vs mock-treated (DMSO) wells.
Experiment [2] relates to OXPHOS gene expression. It counts as cell-based, mouse. Particulars: Conc 20 μM; for GE-HTS (composite Z-score): normalized score vs mock-treated (DMSO) wells.
Experiment [3] deals with cellular dehydrogenase activity. The following applies: for MTT (composite Z-score): normalized score vs mock-treated (DMSO) wells.
In experiment [4] the test system is mitochondrial membrane potential. It counts as cell-based, mouse. Particulars: for ΔΨm (composite Z-score): normalized score vs mock-treated (DMSO) wells.
Experiment [5] has as its system C2C12 myotubes. The following applies: for Viability (composite Z-score): normalized score vs mock-treated (DMSO) wells.
In experiment [6] the test system is cytochrome c. The class given is cell-based, mouse. Particulars: Conc 20 μM; for cyt c (composite Z-score): normalized score vs mock-treated (DMSO) wells.
Experiment [7] relates to nuOXPHOS transcripts. The class given is cell-based, mouse. The following applies: Conc 20 μM; for nucOX (composite Z-score): normalized score vs mock-treated (DMSO) wells.
Experiment [8] concerns mtOXPHOS transcripts. It counts as cell-based, mouse. The following applies: Conc 20 μM; for mitoOX (composite Z-score): normalized score vs mock-treated (DMSO) wells.
Setting [9] is: normalized composite Z-score vs mock-treated (DMSO) wells, Conc 20 μM.
Setting [10] is: normalized composite Z-score vs mock-treated (DMSO) wells.
Setting [11] is: composite Z-score vs mock-treated (DMSO) wells, Conc 20 μM.
The mark [12] stands for this setting: composite Z-score vs mock-treated (DMSO) wells.
Where [13] appears, read: Table 4, C2C12 myotubes, 48 h, composite Z-score.
The mark [14] stands for this setting: composite Z-score vs DMSO, Conc 20 μM.

Where two headings read alike, the source gives them in different places.

Chain of cytochrome c (P62897 whole entry): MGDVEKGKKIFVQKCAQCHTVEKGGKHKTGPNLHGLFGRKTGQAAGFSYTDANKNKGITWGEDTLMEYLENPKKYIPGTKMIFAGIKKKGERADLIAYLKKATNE

As to 3-nor-3-oxopanasinsan-6-ol, the ROS in experiment [1] (setting [9]) was 0.172. For the same compound, in experiment [2] (setting [10]), the GE-HTS is listed as −0.605. Besides, the MTT in experiment [3] (setting [9]) is −0.492. Also, the ΔΨm in experiment [4] (setting [9]) is −0.006. In experiment [5] (setting [9]), this compound displayed a Viability of 0.209. In addition, the cyt c in experiment [6] (setting [10]) was determined as 0.864. In experiment [7] (setting [10]), the nucOX is given as −0.831. Further, in experiment [8] (setting [10]), the mitoOX was determined as 0.004.
`CCOC(=O)c1c(C)cc(O)c(C=O)c1O` [haematommic acid, ethyl ester] showed an ROS in experiment [1] (setting [11]) of 0.478. In addition, in experiment [2] (setting [12]), the GE-HTS is reported as 0.450. Also, the MTT in experiment [3] (setting [11]) is given as −0.761. In experiment [4] (setting [11]), the ΔΨm is −0.120. In addition, the Viability in experiment [5] (setting [11]) is −0.557. Also, in experiment [6] (setting [12]), the cyt c is given as −0.104. This compound had a nucOX in experiment [7] (setting [12]) of 0.387. Further, the mitoOX in experiment [8] (setting [12]) was determined as 0.537.
For the compound `COc1ccc2c(c1)C1(C)CCC(=O)CC1CC2` (stereo not drawn), the “ROS (composite Z-score)” value in experiment [1] (Conc 20 μM) is 0.625. In addition, the “GE-HTS (composite Z-score)” value in experiment [2] is listed as 0.129. The “MTT (composite Z-score)” value in experiment [3] (Conc 20 μM) is reported as −1.993. For the same compound, the “ΔΨm (composite Z-score)” value in experiment [4] (Conc 20 μM) is listed as −0.939. For the same compound, in experiment [5] (Conc 20 μM), the “Viability (composite Z-score)” value is −1.914. Besides, the “cyt c (composite Z-score)” value in experiment [6] is −0.239. Also, the “nucOX (composite Z-score)” value in experiment [7] worked out at 0.140. The “mitoOX (composite Z-score)” value in experiment [8] turned out to be 0.061.
Turning to dihydromundulone [reference compound], the ROS in experiment [1] (setting [13]) and in experiment [1] (setting [9]) was 0.537 each time. In experiment [2] (setting [10]), the GE-HTS came out at 0.414. Besides, the MTT in experiment [3] (setting [13]) and in experiment [3] (setting [9]) was 0.189 each time. Moreover, the ΔΨm in experiment [4] (Table 4, C2C12 myotubes, 48 h, JC-1, composite Z-score) is on record as −0.530; in experiment [4] (setting [9]), −0.530. Moreover, the Viability in experiment [5] (setting [13]) and in experiment [5] (setting [9]) was 0.816 each time. Besides, in experiment [6] (setting [10]), the cyt c is reported as −0.210. In experiment [7] (setting [10]), this compound displayed a nucOX of 0.513. In experiment [8] (setting [10]), this compound showed a mitoOX of 0.168.
Turning to `CC(C)=CCc1c(O)cc(C)oc1=O` [2-isoprenyl-3-hydroxy-5-methyl-a-pyrone], the ROS in experiment [1] (setting [11]) came to 1.032. The GE-HTS in experiment [2] (setting [12]) was 0.309. Moreover, in experiment [3] (setting [11]), the MTT was found to be 0.055. The ΔΨm in experiment [4] (setting [11]) is on record as −0.641. Besides, in experiment [5] (setting [11]), the Viability was −1.025. For the same compound, in experiment [6] (setting [12]), the cyt c is recorded as −0.568. The compound further showed a nucOX in experiment [7] (setting [12]) of 0.277. The compound also returned a mitoOX in experiment [8] (setting [12]) of 0.271.
`CCOc1cc(CC(=O)c2ccc(O)c(O)c2O)ccc1O`: in experiment [1] (Conc 20 μM), the “ROS (composite Z-score)” value worked out at 0.189. For the same compound, the “GE-HTS (composite Z-score)” value in experiment [2] worked out at 1.215. Besides, the “MTT (composite Z-score)” value in experiment [3] (Conc 20 μM) was −1.279. Also, the “ΔΨm (composite Z-score)” value in experiment [4] (Conc 20 μM) is listed as −1.362. Moreover, in experiment [5] (Conc 20 μM), the “Viability (composite Z-score)” value was −1.198. Further, the “cyt c (composite Z-score)” value in experiment [6] came out at 0.255. Also, the “nucOX (composite Z-score)” value in experiment [7] turned out to be 1.496. Besides, the “mitoOX (composite Z-score)” value in experiment [8] turned out to be 0.371.
In experiment [1] (setting [14]), `CN[C@@H](C)[C@H](O)c1ccccc1` [ephedrine] gave an ROS of 1.633. In addition, the GE-HTS in experiment [2] (composite Z-score vs DMSO) is −0.074. Besides, in experiment [3] (setting [14]), the MTT is −2.342. Further, the ΔΨm in experiment [4] (setting [14]) is reported as −0.834. Also, in experiment [5] (setting [14]), the Viability is recorded as −0.536. Besides, the cyt c in experiment [6] (composite Z-score vs DMSO) came out at 0.077. Moreover, in experiment [7] (composite Z-score vs DMSO), the nucOX is given as −0.100. For the same compound, the mitoOX in experiment [8] (composite Z-score vs DMSO) is −0.056.
Regarding `C/C1=C\CC(C)(C)/C=C/CC2(C)OC2CC1` (stereo not drawn) [epoxy (1,11)humulene], the “ROS (composite Z-score)” value in experiment [1] (Conc 20 μM) is −0.355. Moreover, the “GE-HTS (composite Z-score)” value in experiment [2] is −1.172. In addition, the “MTT (composite Z-score)” value in experiment [3] (Conc 20 μM) is on record as −0.802. Further, the “ΔΨm (composite Z-score)” value in experiment [4] (Conc 20 μM) is −0.509. In experiment [5] (Conc 20 μM), the “Viability (composite Z-score)” value stood at 1.157. Besides, in experiment [6], the “cyt c (composite Z-score)” value is 0.979. Also, the “nucOX (composite Z-score)” value in experiment [7] is −1.115. For the same compound, in experiment [8], the “mitoOX (composite Z-score)” value is reported as −1.021.
For `COc1cccc2c1CCC1=CC(=O)CCC12C` (stereo not drawn), the ROS in experiment [1] (setting [11]) was determined as 0.673. In experiment [2] (setting [12]), the GE-HTS is on record as −0.465. Moreover, the MTT in experiment [3] (setting [11]) is on record as −1.530. In addition, the ΔΨm in experiment [4] (setting [11]) is reported as −0.506. Further, the Viability in experiment [5] (setting [11]) is −0.577. Also, the cyt c in experiment [6] (setting [12]) is −0.293. Further, the nucOX in experiment [7] (setting [12]) is reported as −0.372. The mitoOX in experiment [8] (setting [12]) is −0.626.
Turning to `CC(=O)O[C@@H]1C[C@H]2C(C)(C)C(=O)CC[C@]2(C)[C@H]2CC[C@@]3(C)[C@H](c4ccoc4)OC(=O)[C@H]4O[C@]43[C@@]21C` [dihydrogedunin], in experiment [1] (setting [11]), the ROS is on record as −0.690. In addition, the GE-HTS in experiment [2] (setting [12]) is recorded as 0.575. Moreover, the MTT in experiment [3] (setting [11]) is −0.017. Further, in experiment [4] (setting [11]), the ΔΨm is recorded as 1.079. For the same compound, in experiment [5] (setting [11]), the Viability turned out to be 0.637. Also, the cyt c in experiment [6] (setting [12]) came to 0.460. In experiment [7] (setting [12]), this compound had a nucOX of 0.613. This compound also displayed a mitoOX in experiment [8] (setting [12]) of 0.323.
